What was measured:
[1] = molecular target: T1, human Nav 1.5 channels stably expressed in HEK 293 cells (Homo sapiens, UniProt Q14524); experiment: IonWorks Quattro automated patch-clamp, inactivated state block of Nav 1.5 (reported as ratio to Nav 1.7 potency); type: cell-based; conditions: selectivity for Nav 1.7 over Nav 1.5, both by IonWorks
T1 construct: expressed in transfected cells; host or cells: HEK 293
In short: (§1)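 Inactivated-state block was recorded by automated perforated patch (nystatin plus amphotericin) using a double-pulse protocol. Holding was −100 mV (Nav1.7) or −110 mV (Nav1.5), with a 1000 ms prepulse to −10/−30 mV giving ~50% inactivation, then a 10 ms test pulse. IC50s came from Hill fits of peak current inhibition.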

[2] = molecular target: T2, human Nav 1.7 channels stably expressed in HEK 293 cells (Homo sapiens, UniProt Q15858); experiment: IonWorks Quattro automated patch-clamp, inactivated state block of Nav 1.7; type: cell-based; conditions: double-pulse protocol, HEK 293 cells held at -100 mV, read-out: potency for the Nav 1.7 sodium ion channel (IC50, IonWorks)
T2 construct: expressed in transfected cells; host or cells: HEK 293
In short: as §1

T2 sequence (Q15858 whole entry): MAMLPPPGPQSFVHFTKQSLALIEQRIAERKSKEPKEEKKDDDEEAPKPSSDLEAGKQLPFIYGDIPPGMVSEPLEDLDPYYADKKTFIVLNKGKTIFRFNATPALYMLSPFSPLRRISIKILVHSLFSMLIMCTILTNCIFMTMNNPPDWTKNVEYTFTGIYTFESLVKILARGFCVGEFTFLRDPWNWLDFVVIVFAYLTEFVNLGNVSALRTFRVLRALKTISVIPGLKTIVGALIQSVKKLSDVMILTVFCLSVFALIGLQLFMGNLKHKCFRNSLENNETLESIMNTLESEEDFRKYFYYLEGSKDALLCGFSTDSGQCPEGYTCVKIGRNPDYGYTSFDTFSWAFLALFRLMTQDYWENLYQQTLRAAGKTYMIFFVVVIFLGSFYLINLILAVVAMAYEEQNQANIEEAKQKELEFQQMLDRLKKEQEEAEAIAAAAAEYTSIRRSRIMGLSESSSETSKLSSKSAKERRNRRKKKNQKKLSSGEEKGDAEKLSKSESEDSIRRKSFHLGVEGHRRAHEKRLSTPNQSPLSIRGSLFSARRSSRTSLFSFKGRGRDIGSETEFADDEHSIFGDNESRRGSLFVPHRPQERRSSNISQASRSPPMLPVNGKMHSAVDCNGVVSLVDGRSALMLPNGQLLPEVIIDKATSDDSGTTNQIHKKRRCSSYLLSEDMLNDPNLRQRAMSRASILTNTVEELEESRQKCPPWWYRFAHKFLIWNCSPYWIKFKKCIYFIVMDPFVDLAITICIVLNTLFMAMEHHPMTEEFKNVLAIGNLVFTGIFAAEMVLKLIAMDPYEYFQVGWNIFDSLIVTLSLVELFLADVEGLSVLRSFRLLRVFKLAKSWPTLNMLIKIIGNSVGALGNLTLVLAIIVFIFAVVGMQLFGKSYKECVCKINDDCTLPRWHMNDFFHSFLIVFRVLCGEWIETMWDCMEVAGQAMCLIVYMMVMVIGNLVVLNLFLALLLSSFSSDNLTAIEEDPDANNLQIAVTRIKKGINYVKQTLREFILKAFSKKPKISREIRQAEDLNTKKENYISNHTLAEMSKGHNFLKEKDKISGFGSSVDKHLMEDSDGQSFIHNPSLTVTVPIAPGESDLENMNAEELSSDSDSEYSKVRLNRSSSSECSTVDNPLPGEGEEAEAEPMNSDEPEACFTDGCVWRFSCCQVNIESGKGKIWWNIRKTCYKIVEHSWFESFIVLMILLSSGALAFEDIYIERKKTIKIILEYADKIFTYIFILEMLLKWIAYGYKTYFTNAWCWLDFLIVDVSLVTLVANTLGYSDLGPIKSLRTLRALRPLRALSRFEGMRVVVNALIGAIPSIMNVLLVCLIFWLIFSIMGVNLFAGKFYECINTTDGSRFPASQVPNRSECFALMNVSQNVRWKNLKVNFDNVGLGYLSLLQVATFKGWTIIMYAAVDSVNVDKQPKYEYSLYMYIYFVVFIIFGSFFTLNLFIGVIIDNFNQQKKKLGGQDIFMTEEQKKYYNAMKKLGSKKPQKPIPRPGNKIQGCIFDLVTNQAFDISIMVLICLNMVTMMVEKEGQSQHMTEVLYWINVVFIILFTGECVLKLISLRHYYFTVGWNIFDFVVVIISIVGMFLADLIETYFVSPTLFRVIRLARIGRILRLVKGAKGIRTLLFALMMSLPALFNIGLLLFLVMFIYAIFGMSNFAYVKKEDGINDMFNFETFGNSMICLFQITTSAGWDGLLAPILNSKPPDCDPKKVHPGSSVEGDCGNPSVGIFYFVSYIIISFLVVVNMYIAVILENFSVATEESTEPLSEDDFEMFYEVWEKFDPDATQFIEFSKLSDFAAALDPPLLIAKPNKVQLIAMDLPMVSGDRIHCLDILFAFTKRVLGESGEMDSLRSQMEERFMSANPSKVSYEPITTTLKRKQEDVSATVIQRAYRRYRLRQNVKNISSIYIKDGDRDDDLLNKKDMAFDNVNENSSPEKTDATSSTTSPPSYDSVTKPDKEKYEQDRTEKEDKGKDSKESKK
T1 sequence (Q14524 whole entry): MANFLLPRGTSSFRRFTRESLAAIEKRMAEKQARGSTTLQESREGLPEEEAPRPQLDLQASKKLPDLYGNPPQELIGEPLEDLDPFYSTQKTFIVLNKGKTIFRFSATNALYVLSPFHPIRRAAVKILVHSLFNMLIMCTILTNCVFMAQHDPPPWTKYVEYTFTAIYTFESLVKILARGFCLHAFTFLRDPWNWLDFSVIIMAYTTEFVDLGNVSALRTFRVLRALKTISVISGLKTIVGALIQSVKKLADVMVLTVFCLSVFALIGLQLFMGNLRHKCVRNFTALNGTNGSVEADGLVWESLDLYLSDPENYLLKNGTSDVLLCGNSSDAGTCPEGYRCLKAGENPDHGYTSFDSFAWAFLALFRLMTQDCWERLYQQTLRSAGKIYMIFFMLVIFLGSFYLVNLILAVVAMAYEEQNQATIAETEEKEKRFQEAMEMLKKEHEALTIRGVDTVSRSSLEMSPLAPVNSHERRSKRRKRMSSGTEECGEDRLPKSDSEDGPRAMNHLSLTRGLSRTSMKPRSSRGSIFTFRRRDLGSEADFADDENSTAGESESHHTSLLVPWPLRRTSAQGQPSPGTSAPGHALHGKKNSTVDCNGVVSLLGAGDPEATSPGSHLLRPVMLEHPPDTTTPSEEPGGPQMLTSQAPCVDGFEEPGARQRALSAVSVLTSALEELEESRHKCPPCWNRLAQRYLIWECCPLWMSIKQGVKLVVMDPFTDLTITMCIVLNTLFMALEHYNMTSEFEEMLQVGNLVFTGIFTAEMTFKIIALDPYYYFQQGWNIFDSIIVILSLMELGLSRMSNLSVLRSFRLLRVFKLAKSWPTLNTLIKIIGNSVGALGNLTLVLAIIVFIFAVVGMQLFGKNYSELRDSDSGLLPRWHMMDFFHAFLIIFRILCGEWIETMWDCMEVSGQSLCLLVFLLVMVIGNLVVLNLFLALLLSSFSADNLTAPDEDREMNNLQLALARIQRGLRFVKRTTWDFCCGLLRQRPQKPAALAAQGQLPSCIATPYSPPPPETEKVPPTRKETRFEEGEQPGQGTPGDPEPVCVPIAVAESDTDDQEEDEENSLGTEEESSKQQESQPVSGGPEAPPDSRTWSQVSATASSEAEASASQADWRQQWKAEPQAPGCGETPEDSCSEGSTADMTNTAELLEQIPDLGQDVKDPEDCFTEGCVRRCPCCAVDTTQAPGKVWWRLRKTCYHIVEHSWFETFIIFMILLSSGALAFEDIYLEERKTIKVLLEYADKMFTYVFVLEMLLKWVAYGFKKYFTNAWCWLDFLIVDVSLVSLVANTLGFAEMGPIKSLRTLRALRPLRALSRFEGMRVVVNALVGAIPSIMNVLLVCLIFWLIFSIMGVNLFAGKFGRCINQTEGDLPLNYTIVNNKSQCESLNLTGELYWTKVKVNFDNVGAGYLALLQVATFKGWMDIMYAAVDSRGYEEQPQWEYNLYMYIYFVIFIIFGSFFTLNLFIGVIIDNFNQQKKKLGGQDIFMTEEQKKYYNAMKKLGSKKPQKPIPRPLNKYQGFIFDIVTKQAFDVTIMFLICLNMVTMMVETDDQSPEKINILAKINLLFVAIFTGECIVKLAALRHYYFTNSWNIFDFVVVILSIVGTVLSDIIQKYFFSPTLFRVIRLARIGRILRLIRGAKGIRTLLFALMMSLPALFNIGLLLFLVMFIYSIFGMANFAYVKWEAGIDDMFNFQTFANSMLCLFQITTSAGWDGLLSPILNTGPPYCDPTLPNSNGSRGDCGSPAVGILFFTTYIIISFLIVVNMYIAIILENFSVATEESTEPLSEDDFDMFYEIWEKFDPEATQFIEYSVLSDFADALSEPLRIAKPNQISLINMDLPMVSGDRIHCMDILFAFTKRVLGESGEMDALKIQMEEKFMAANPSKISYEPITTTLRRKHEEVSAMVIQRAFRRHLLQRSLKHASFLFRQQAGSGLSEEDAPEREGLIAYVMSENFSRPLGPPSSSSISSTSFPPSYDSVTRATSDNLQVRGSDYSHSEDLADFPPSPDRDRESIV

Row | IC50 [2] [nM] | Compound | ratio of Nav 1.7 : Nav 1.5 potency (IonWorks) [1]
1 | 40 | O=S(=O)(Nc1nccs1)c1cc(Cl)c(NCCCCNC[C@@H]2C[C@H](Oc3ccccc3)CN2)cc1F [Ex 8-5, 5-chloro-2-fluoro-4-{[4-({[(2S,4S)-4-phenoxypyrrolidin-2-yl]methyl}amino)butyl]-amino}-N-1,3-thiazol-2-yl-benzenesulfonamide] | 425
2 | 87 | N#C[C@H]1CN[C@H](CNCCCCNc2cc(F)c(S(=O)(=O)Nc3nccs3)cc2Cl)C1 [Ex 8-7, 5-chloro-4-{[4-({[(2S,4R)-4-cyanopyrrolidin-2-yl]-methyl}amino)butyl]amino}-2-fluoro-N-1,3-thiazol-2-ylbenzenesulfonamide] | > 380
3 | 14 | O=S(=O)(Nc1nccs1)c1cc(Cl)c(NCCCCNC[C@H]2C[C@@H](c3ccccc3)CN2)cc1F [Ex 8-11, 5-chloro-2-fluoro-4-{[4-({[(2R,4S)-4-phenylpyrrolidin-2-yl]-methyl}amino)butyl]amino}-N-1,3-thiazol-2-yl-benzenesulfonamide] | > 2360
4 | 14 | O=S(=O)(Nc1nccs1)c1cc(Cl)c(NCCCCNCC2CCC(c3ccccc3)CN2)cc1F (stereo not drawn) [Ex 8-14, 5-chloro-2-fluoro-4-[(4-{[(5-phenyl-piperidin-2-yl)-methyl]amino}butyl)amino]-N-1,3-thiazol-2-yl-benzenesulfonamide] | 2290
5 | 63 | CO[C@H]1CN[C@H](CNCCCCNc2cc(F)c(S(=O)(=O)Nc3nccs3)cc2Cl)C1 [Ex 8-16] | > 520
6 | 25 | O=S(=O)(Nc1nccs1)c1cc(Cl)c(NCCCCCNCC2CCCNC2)cc1F (stereo not drawn) [Ex 9-04, 5-chloro-2-fluoro-4-({5-[(piperidin-3-ylmethyl)-amino]-pentyl}amino)-N-1,3-thiazol-2-yl-benzenesulfonamide] | > 1320
7 | 79 | C[C@@H](N)CNCCCCCNc1cc(F)c(S(=O)(=O)Nc2nccs2)cc1Cl [Ex 9-05, 4-[(5-{[(2R)-2-aminopropyl]-amino}penty)amino]-5-chloro-2-fluoro-N-1,3-thiazol-2-yl-benzenesulfonamide] | > 420
8 | 200 | O=S(=O)(Nc1nccs1)c1cc(Cl)c(NCCCCCNCC2CCN2)cc1F (stereo not drawn) [Ex 9-06, 4-({5-[(azetidin-2-ylmethyl)amino]-pentyl}amino)-5-chloro-2-fluoro-N-1,3-thiazol-2-yl-benzenesulfonamide] | > 160
9 | 78 | O=S(=O)(Nc1nccs1)c1cc(Cl)c(NCC(CCNC[C@@H]2CCCN2)c2ccccc2)cc1F (stereo partly drawn) [Ex 10-3, 5-chloro-2-fluoro-4-((2-phenyl-4-(((S)-pyrrolidin-2-ylmethyl)amino)butyl)amino)-N-(thiazol-2-yl)benzenesulfonamide] | > 423
10 | 20 | NC[C@H]1CCN1CCCCNc1cc(F)c(S(=O)(=O)Nc2ncns2)cc1Cl [Ex 16-02, 4-({4-[(2R)-2-(aminomethyl)-azetidin-1-yl]butyl}amino)-5-chloro-2-fluoro-N-1,2,4-thiadiazol-5-yl-benzene-sulfonamide] | > 1650
11 | 14 | CN[C@@H]1CCN(CCCCNc2cc(F)c(S(=O)(=O)Nc3ncns3)cc2Cl)C1 [Ex 16-03, 5-chloro-2-fluoro-4-({4-[(3R)-3-(methylamino)pyrrolidin-1-yl]-butyl}-amino)-N-1,2,4-thiadiazol-5-ylbenzene-sulfonamide] | 1930
12 | 1.9 | O=S(=O)(Nc1ncc(F)s1)c1cc(Cl)c(NCCCCNCCNC2C3CC4CC(C3)CC2C4)cc1F (stereo not drawn) [Ex 16-07, 5-chloro-2-fluoro-N-(5-fluoro-1,3-thiazol-2-yl)-4-[(4-{[2-(tricyclo[3.3.1.1~3,7~]dec-2-yl-amino)-ethyl]amino}butyl)-amino]-benzene-sulfonamide] | > 17400
13 | 15 | NC[C@@H]1CCN1CCCCNc1cc(F)c(S(=O)(=O)Nc2ncc(F)s2)cc1Cl [Ex 16-11, 4-({4-[(2S)-2-(aminomethyl)azetidin-1-yl]-butyl}amino)-5-chloro-2-fluoro-N-(5-fluoro-1,3-thiazol-2-yl)-benzene-sulfonamide] | > 1530
14 | 14 | O=S(=O)(Nc1ncc(F)s1)c1cc(Cl)c(NCCCCN2C[C@H]3CCCN[C@H]3C2)cc1F [Ex 16-23, 5-chloro-2-fluoro-N-(5-fluoro-1,3-thiazol-2-yl)-4-({4-[(4aR,7aR)-octahydro-6H-pyrrolo[3,4-b]pyridin-6-yl]butyl}amino)benzene-sulfonamide] | > 2357
15 | 36 | N#Cc1cc(S(=O)(=O)Nc2nccs2)c(F)cc1NCCCCN[C@@H]1CCNC1 [Ex 16-39, 5-cyano-2-fluoro-4-({4-[(3R)-pyrrolidin-3-ylamino]-butyl}amino)-N-1,3-thiazol-2-yl-benzenesulfonamide] | > 917
16 | 34 | NCC(F)CNCCCCNc1cc(F)c(S(=O)(=O)Nc2ncc(F)s2)cc1Cl (stereo not drawn) [Ex 16-46, 4-({4-[(3-amino-2-fluoro-propyl)amino]butyl}amino)-5-chloro-2-fluoro-N-(5-fluoro-1,3-thiazol-2-yl)-benzenesulfonamide] | > 970
17 | 74 | CNCCNCCCCNc1cc(F)c(S(=O)(=O)Nc2ncns2)cc1F [Ex 16-47, 2,5-difluoro-4-[(4-{[2-(methylamino)ethyl]amino}-butyl)amino]-N-1,2,4-thiadiazol-5-ylbenzene-sulfonamide] | > 460
18 | 35 | CNCCNCCCCNc1cc(F)c(S(=O)(=O)Nc2nc(C)cs2)cc1Cl [Ex 16-51, 5-chloro-2-fluoro-4-[(4-{[2-(methylamino)ethyl]amino}-butyl)amino]-N-(4-methyl-1,3-thiazol-2-yl)benzene-sulfonamide] | > 943
